Where “and” joins values, the source holds several entries; their conditions need not be identical. Equal entries are not always repeated.
Key:
LRRK2^RCKW = molecular target: T1, LRRK2^RCKW (Homo sapiens, UniProt Q5S007); assay: Biochemical LRRK2 activity assay (PhosphoSense, AssayQuant SOX peptide AQT0615); settings: for IC50: LRRK2^RCKW kinase activity, in vitro; for normalized response (LRRK2 activity): normalized to 0% (no kinase) and 100% (no inhibitor) control, two singlicate columns per compound
T1 construct: LRRK2 R1327 to E2527; His6-Z-tag (TEV cleavable) (N, cleaved yes); host or cells: Sf9 insect cells (baculovirus)
T1 sequence (Q5S007 1327-2527): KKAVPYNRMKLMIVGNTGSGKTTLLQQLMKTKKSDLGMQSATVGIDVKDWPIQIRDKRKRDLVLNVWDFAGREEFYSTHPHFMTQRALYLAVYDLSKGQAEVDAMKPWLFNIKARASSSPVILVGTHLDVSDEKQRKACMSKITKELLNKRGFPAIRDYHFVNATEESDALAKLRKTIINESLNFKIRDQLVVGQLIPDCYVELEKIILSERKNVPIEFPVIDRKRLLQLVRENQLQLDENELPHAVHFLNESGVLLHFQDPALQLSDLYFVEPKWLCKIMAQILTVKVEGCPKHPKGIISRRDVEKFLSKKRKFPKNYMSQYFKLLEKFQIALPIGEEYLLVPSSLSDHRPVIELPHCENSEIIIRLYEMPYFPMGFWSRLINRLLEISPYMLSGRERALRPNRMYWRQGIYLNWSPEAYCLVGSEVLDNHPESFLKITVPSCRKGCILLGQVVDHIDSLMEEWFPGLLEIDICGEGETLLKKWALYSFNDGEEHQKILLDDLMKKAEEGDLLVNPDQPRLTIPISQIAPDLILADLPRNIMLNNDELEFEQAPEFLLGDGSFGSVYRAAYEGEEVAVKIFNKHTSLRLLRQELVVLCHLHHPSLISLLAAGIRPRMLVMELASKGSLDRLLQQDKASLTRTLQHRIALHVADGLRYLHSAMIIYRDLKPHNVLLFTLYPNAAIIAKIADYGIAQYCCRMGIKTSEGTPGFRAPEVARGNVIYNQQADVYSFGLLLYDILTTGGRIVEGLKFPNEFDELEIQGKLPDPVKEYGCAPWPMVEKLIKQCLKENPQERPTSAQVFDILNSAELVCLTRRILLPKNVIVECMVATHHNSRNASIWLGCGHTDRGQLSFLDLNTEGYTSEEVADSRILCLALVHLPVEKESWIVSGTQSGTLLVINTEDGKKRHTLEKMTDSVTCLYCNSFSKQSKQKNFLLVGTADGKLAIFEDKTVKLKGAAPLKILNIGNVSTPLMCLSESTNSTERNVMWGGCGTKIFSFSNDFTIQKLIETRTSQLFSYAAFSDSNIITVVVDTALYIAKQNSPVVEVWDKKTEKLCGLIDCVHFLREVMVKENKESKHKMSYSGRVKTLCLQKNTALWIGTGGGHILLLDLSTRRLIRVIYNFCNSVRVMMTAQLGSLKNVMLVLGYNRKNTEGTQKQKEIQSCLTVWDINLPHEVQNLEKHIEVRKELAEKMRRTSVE
Outline: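 Controls lacked protein and compound (0%) or compound only (100%). IC50 derived by nonlinear regression of normalized response versus log[inhibitor].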

[1] = molecular target: T2, ~100 representative kinases (Homo sapiens, UniProt O75385); assay: DSF 100 kinase selectivity screen; format: binding; settings: Protein ULK1; DSF; average of three replicates;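 also: compound tested at 20 µM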
T2 construct: Recombinant protein kinase domains with a concentration of 2 μM
T2 sequence (O75385 1-1050): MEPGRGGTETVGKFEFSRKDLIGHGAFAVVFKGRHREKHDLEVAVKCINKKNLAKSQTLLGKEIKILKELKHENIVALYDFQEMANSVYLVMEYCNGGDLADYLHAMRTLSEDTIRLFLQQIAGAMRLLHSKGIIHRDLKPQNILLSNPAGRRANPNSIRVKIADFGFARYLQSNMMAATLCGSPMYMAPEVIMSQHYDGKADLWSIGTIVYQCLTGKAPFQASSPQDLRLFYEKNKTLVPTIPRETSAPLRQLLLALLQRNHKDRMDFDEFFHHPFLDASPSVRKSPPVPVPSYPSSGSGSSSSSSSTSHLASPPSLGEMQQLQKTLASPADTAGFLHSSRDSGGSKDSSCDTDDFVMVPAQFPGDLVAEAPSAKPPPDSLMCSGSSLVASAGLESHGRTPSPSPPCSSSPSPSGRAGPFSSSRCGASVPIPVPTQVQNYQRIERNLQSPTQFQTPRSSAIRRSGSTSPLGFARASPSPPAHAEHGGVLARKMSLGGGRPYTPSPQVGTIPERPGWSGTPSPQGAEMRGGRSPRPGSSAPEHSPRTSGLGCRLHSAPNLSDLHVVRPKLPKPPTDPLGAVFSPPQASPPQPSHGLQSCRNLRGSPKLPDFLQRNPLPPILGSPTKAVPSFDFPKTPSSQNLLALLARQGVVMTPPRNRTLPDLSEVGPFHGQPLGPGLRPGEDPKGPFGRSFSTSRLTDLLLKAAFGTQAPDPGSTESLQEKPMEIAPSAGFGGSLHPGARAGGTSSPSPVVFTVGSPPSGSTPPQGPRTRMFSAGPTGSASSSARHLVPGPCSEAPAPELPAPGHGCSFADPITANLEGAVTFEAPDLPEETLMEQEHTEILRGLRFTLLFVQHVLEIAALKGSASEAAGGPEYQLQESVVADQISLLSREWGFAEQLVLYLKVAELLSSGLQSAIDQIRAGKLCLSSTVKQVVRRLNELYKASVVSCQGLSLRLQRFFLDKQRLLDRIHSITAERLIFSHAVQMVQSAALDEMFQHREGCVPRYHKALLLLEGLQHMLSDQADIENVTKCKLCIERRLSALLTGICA
Outline: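 Each kinase domain, at 2 μM, is mixed with 20 μM test compound and SYPRO Orange in Hepes (20 mM, pH 7.5) with 500 mM NaCl. Temperature is then raised at 3°C/min and fluorescence-monitored unfolding yields the melting temperature change, ΔTm in degrees Celsius.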

IC50 (LRRK2^RCKW)	normalized response (LRRK2 activity) (LRRK2^RCKW; log[inhibitor(mol)] -4.82391)	normalized response (LRRK2 activity) (LRRK2^RCKW; log[inhibitor(mol)] -5.12494)	normalized response (LRRK2 activity) (LRRK2^RCKW; log[inhibitor(mol)] -5.60206)	normalized response (LRRK2 activity) (LRRK2^RCKW; log[inhibitor(mol)] -6.30103)	normalized response (LRRK2 activity) (LRRK2^RCKW; log[inhibitor(mol)] -6.90309)	normalized response (LRRK2 activity) (LRRK2^RCKW; log[inhibitor(mol)] -7.30103)	normalized response (LRRK2 activity) (LRRK2^RCKW; log[inhibitor(mol)] -7.60206)	normalized response (LRRK2 activity) (LRRK2^RCKW; log[inhibitor(mol)] -8.09691)	normalized response (LRRK2 activity) (LRRK2^RCKW; log[inhibitor(mol)] -8.61979)	normalized response (LRRK2 activity) (LRRK2^RCKW; log[inhibitor(mol)] -9.09691)	normalized response (LRRK2 activity) (LRRK2^RCKW; log[inhibitor(mol)] -9.39794)	dTm [1]	Structure (SMILES)
2150 ± 76 nM	17.1176% and 19.6941%	21.5574% and 22.3836%	47.7852% and 45.6806%	71.6605% and 77.9071%	94.0943% and 97.1643%	97.7557% and 95.1358%	95.6902% and 98.0188%	96.4251% and 96.973%	102.476% and 68.784%	101.485% and 101.404%	101.487% and 73.6695%	5.26 K	Cc1cc(NC(=O)C2(C(=O)Nc3ccc(F)cc3)CC2)cc(-c2c[nH]c3ncnc(N4CCOCC4)c23)c1 [Compound 6]
1960 ± 652 nM	9.9531% and 0.1682%	15.329% and 15.4402%	51.4182% and 54.957%	74.2368% and 85.6074%	93.8115% and 94.6865%	93.6955% and 101.281%	91.0994% and 95.9483%	92.7092% and 88.0778%	94.7784% and 93.0186%	131.133% and 93.2265%	94.4883% and 98.7958%	6.71 K	O=C(Nc1cc(F)cc(Br)c1)C1(C(=O)Nc2cccc(-c3c[nH]c4ncnc(N5CCOCC5)c34)c2)CC1 [Compound 27]
135 ± 2 nM	–	-8.095% and -6.809%	75.5755% and 70.6669%	8.742% and 11.7467%	50.7191% and 51.183%	75.6682% and 82.0657%	86.9301% and 90.6015%	94.0388% and 92.0065%	101.276% and 93.5219%	104.187% and 96.8267%	100.869% and 63.9823%	2.91 K	Cc1ccc(-n2nc(C(C)(C)C)cc2NC(=O)Nc2cccc(-c3c[nH]c4nc(Cl)nc(N5CCOCC5)c34)c2)cc1 [Compound 30]
886 ± 63 nM	10.3797% and 6.914%	10.6927% and 10.684%	26.6669% and 27.2452%	59.6653% and 62.0504%	86.7302% and 90.6112%	94.29% and 100.35%	102.254% and 104.876%	100.313% and 102.032%	105% and 108.964%	105.539% and 102.73%	104.285% and 104.996%	9.16 K	CC(C)(C)c1cccc(NC(=O)C2(C(=O)Nc3cccc(-c4c[nH]c5ncnc(N6CCOCC6)c45)c3)CC2)c1 [Compound 22]
20.2 ± 0.01 nM	–	-15.0137% and -16.6919%	-14.1253% and -13.1052%	-11.8493% and -10.5551%	-5.6961% and -4.1002%	9.533% and 17.3374%	45.8935% and 45.9868%	84.3047% and 80.6906%	106.121% and 110.711%	109.51% and 103.466%	104.536% and 110.261%	10.70 K	Cc1ccc(-n2nc(C(C)(C)C)cc2NC(=O)Nc2cccc(-c3c[nH]c4ncnc(N5CCOCC5)c34)c2)cc1 [Compound 29]
818 ± 56 nM	4.179% and 4.042%	6.886% and 2.089%	16.9372% and 25.3493%	61.5503% and 64.2768%	87.889% and 62.9679%	95.1314% and 96.4468%	95.9663% and 100.454%	95.3684% and 96.0989%	98.0471% and 98.2841%	97.884% and 98.6428%	99.7517% and 70.9452%	7.16 K	O=C(Nc1cccc(-c2c[nH]c3ncnc(N4CCOCC4)c23)c1)C1(C(=O)Nc2cc(Br)c(F)cc2F)CC1 [Compound 25]

Structure (SMILES)	IC50 (LRRK2^RCKW)	normalized response (LRRK2 activity) (LRRK2^RCKW; log[inhibitor(mol)] -4.82391)	normalized response (LRRK2 activity) (LRRK2^RCKW; log[inhibitor(mol)] -5.12494)	normalized response (LRRK2 activity) (LRRK2^RCKW; log[inhibitor(mol)] -5.60206)	normalized response (LRRK2 activity) (LRRK2^RCKW; log[inhibitor(mol)] -6.30103)	normalized response (LRRK2 activity) (LRRK2^RCKW; log[inhibitor(mol)] -6.90309)	normalized response (LRRK2 activity) (LRRK2^RCKW; log[inhibitor(mol)] -7.30103)	normalized response (LRRK2 activity) (LRRK2^RCKW; log[inhibitor(mol)] -7.60206)	normalized response (LRRK2 activity) (LRRK2^RCKW; log[inhibitor(mol)] -8.09691)	normalized response (LRRK2 activity) (LRRK2^RCKW; log[inhibitor(mol)] -8.61979)	normalized response (LRRK2 activity) (LRRK2^RCKW; log[inhibitor(mol)] -9.09691)	normalized response (LRRK2 activity) (LRRK2^RCKW; log[inhibitor(mol)] -9.39794)	dTm [1]
CCSc1nc(NC)c2c(-c3cccc(NC(=O)Nc4cc(C(C)(C)C)nn4-c4ccc(C)cc4)c3)c[nH]c2n1 [Compound 32]	296 ± 39 nM	–	-7.459% and -2.016%	19.5756% and 16.293%	31.5753% and 35.852%	72.0233% and 73.3531%	83.8241% and 86.8594%	89.687% and 98.7972%	90.4381% and 87.8004%	96.4865% and 91.0964%	94.4983% and 98.9209%	96.9901% and 60.5361%	0.62 K

Source: article PMC12136037, “Type II kinase inhibitors that target Parkinson’s disease–associated LRRK2” (Science Advances, 2025)
